Source: patent EP2363494A9, “Improvement of transfection results of non-viral gene delivery systems by influencing the congenital immune system” (Biontex Laboratories Gmbh, priority 2007, dated 2009)
Read-outs that look alike come from different tables or passages of the source.

Experiments:
HeLa-Luc Zellen [1] = test: Luciferase assay after anti-Luciferase siRNA transfection in presence of TLR7/8 agonists (Beispiel 9); type: cell-based; conditions: 48 h
Procedure: Anschließend werden 120 µl Luciferase-Lysispuffer hinzugegeben.
Alle Messungen wurden dreifach durchgeführt.
Von der Imiquimod-Arbeitslösung werden in A1 0,78 µl (=0,25 µg/ml Endkonzentration), in A2 15,5 µl (=5µg/ml) und in A3 31 µl (=10µg/ml) pipettiert. Von der ssRNA40/LyoVec-Arbeitslösung werden in B1 0,78 µl (=0,5 µg/ml Endkonzentration ssRNA40), in B2 15,5 µl (=5µg/ml) und in B3 31µl (=10µg/ml) pipettiert. Nach der Zugabe der Agonisten werden die beiden 48 Well Platten für 48 Stunden im CO2-Inkubator inkubiert.

HeLa-Luc Zellen [2] = test: Trypan blue vitality determination after siRNA transfection in presence of TLR7/8 agonists (Beispiel 9); type: cell-based; conditions: Trypanblau after 48 h, Blindprobe 95,9
Procedure: Zunächst werden die ersten 5 Wells der ersten 3 Reihen einer 48 Well Platte mit jeweils 30 µl PBS gefüllt. Die Stocklösung der anti-Luciferase-siRNA und der non-specific-control-siRNA wird mit PBS auf eine Konzentration von 1 pmol/10 µl eingestellt. Anschließend werden jeweils 10 µl der Arbeitslösung der anti-Luciferase-siRNA in die ersten 3 Wells der der ersten drei Reihen der 48 Well Platte pipettiert. In die jeweils vierten Wells werden jeweils 10 µl der Arbeitslösung der non-specific-control-siRNA pipettiert. Das Metafectene Pro Reagenz wird mit PBS 1:300 verdünnt. Von dieser Verdünnung werden jeweils 20 µl in jedes Well mit siRNA gegeben. Anschließend werden die Lipoplexe für 20 Minuten bei Raumtemperatur inkubiert. Danach werden pro Well 250 µl Zellsuspension zugegeben. Analog wird eine zweite Platte bestückt.
In die ersten 2 Spalten der beiden 48 Well Platte werden 2 verschiedene Agonisten hinzugegeben. Dabei werden 3 verschiedene Arbeitskonzentrationen der Agonisten verwendet. Die Agonisten liegen lyophilisiert vor. Sie werden mit endotoxin-freiem Wasser zu Stocklösungen mit der Konzentration 100µg/ml gelöst. Die Stocklösungen werden jeweils 1:10 mit Wasser zu Arbeitslösungen verdünnt.
Von der ssRNA40/LyoVec-Arbeitslösung werden in B1 0,78 µl (=0,5 µg/ml Endkonzentration ssRNA40), in B2 15,5 µl (=5µg/ml) und in B3 31µl (=10µg/ml) pipettiert. Nach der Zugabe der Agonisten werden die beiden 48 Well Platten für 48 Stunden im CO2-Inkubator inkubiert.
Nach einer Inkubationszeit von 48 Stunden werden die Zellen einer Platte trypsiniert und mittels einer Neubauer-Zählkammer eine Vitalitätbestimmung mit Trypanblau für jedes Well durchgeführt.
Es wurden zwischen 40 und 70 Zellen ausgewertet.

HeLa-Luc Zellen [3] = test: Luciferase assay after anti-Luciferase siRNA transfection in presence of kinase inhibitors (Beispiel 8); conditions: 2 h before anti-Luciferase-siRNA/Metafectene Pro lipoplex
HeLa Zellen = conditions: Vorinkubationszeit 2h, inhibitor replaced and transfection repeated on day 3, Entwicklungszeit 10 min, 0µM well 0,63
Procedure: Die Effizienz der Transfektion wird mit dem β-Galaktosidase Assay Kit nach Vorgaben des Herstellers durchgeführt. Die Platten werden so lange entwickelt bis im Mikroplate-Reader eine Gelbfärbung mit einer Absorption von 1-2 gemessen wird und anschließend sofort gestoppt. Die Inkubationszeit wird anschließend notiert. Die Werte werden mit dem Mikroplate-Reader ausgelesen, und der Mittelwert gebildet.
1. Tag: Es werden HeLa Zellen in eine 48 Well Platte ausgesät.
1 mg Inhibitor wird in 100 µl DMSO gelöst (Stocklösung). Anschließend wird mit PBS 1:20 verdünnt (Arbeitslösung). Anschließend werden die Wells der 48 Well Platte mit folgenden Mengen Inhibitor versorgt:
Anschließend werden die Lipoplexe hergestellt. […] Jetzt werden beide Lösungen gemischt und 15 min inkubiert. Am Ende werden jeweils 50 µl der Lipoplexlösung in jedes Well gegeben.
Die Schritte Lipoplexherstellung und Transfektion werden ohne Inkubationszeit wiederholt.
Analog Beispiel 1 (mit halben Mengen)

SMILES: CC(C)Cn1cnc2c(N)nc3ccccc3c21 [Imiquimod, 1-(2-methylpropyl)-1H-imidazol[4,5-c]quinolin-4-amine]
- Luciferase Assay, Mittelwert von 3x3 (HeLa-Luc Zellen [1]; Imiquimod 0,25 µg/ml Endkonzentration (0,5µg/ml in the 30th table) + anti-Luciferase-siRNA/Metafectene Pro, same plate row: siRNA alone 1604, non-specific control 3016, blank 2936): 676 RLU/µl Zellextrakt/sec
- Luciferase Assay, Mittelwert von 3x3 (HeLa-Luc Zellen [1]; Imiquimod 5µg/ml + anti-Luciferase-siRNA/Metafectene Pro, same plate row: siRNA alone 1302, non-specific control 2753, blank 2673): 349 RLU/µl Zellextrakt/sec
- Luciferase Assay, Mittelwert von 3x3 (HeLa-Luc Zellen [1]; Imiquimod 10µg/ml + anti-Luciferase-siRNA/Metafectene Pro, same plate row: siRNA alone 1481, non-specific control 2822, blank 2476): 116 RLU/µl Zellextrakt/sec
- Vitalität (HeLa-Luc Zellen [2]; Imiquimod 0,5µg/ml + anti-Luciferase-siRNA/Metafectene Pro): 98,6%
- Vitalität (HeLa-Luc Zellen [2]; Imiquimod 5µg/ml + anti-Luciferase-siRNA/Metafectene Pro): 88,7%
- Vitalität (HeLa-Luc Zellen [2]; Imiquimod 10µg/ml + anti-Luciferase-siRNA/Metafectene Pro): 88,6%

SMILES: C[S+]([O-])c1ccc(-c2nc(-c3ccncc3)c(-c3ccc(F)cc3)[nH]2)cc1 (stereo not shown) [SB203580]
- Luciferase Assay, Mittelwert von 3x3 Messungen (HeLa-Luc Zellen [3]; SB203580 5µM, one transfection, 0µM 1027, non-specific-control-siRNA 2029, untransfected 2504): 693 RLU/µl Zellextrakt/sec
- Luciferase Assay, Mittelwert von 3x3 Messungen (HeLa-Luc Zellen [3]; SB203580 5µM, transfection repeated on day 3, 0µM 976, non-specific-control-siRNA 2135, untransfected 2531): 696 RLU/µl Zellextrakt/sec
- Luciferase Assay, Mittelwert von 3x3 Messungen (HeLa-Luc Zellen [3]; SB203580 10µM, one transfection, 0µM 1027, non-specific-control-siRNA 2029, untransfected 2504): 747 RLU/µl Zellextrakt/sec
- Luciferase Assay, Mittelwert von 3x3 Messungen (HeLa-Luc Zellen [3]; SB203580 10µM, transfection repeated on day 3, 0µM 976, non-specific-control-siRNA 2135, untransfected 2531): 656 RLU/µl Zellextrakt/sec
- Luciferase Assay, Mittelwert von 3x3 Messungen (HeLa-Luc Zellen [3]; SB203580 20µM, one transfection, 0µM 1027, non-specific-control-siRNA 2029, untransfected 2504): 630 RLU/µl Zellextrakt/sec
- Luciferase Assay, Mittelwert von 3x3 Messungen (HeLa-Luc Zellen [3]; SB203580 20µM, transfection repeated on day 3, 0µM 976, non-specific-control-siRNA 2135, untransfected 2531): 617 RLU/µl Zellextrakt/sec
- Luciferase Assay, Mittelwert von 3x3 Messungen (HeLa-Luc Zellen [3]; SB203580 30µM, one transfection, 0µM 1027, non-specific-control-siRNA 2029, untransfected 2504): 671 RLU/µl Zellextrakt/sec
- Luciferase Assay, Mittelwert von 3x3 Messungen (HeLa-Luc Zellen [3]; SB203580 30µM, transfection repeated on day 3, 0µM 976, non-specific-control-siRNA 2135, untransfected 2531): 587 RLU/µl Zellextrakt/sec
- Luciferase Assay, Mittelwert von 3x3 Messungen (HeLa-Luc Zellen [3]; SB203580 40µM, one transfection, 0µM 1027, non-specific-control-siRNA 2029, untransfected 2504): 669 RLU/µl Zellextrakt/sec
- Luciferase Assay, Mittelwert von 3x3 Messungen (HeLa-Luc Zellen [3]; SB203580 40µM, transfection repeated on day 3, 0µM 976, non-specific-control-siRNA 2135, untransfected 2531): 610 RLU/µl Zellextrakt/sec

SMILES: N#CC(=C(/N)Sc1ccccc1N)/C(C#N)=C(/N)Sc1ccccc1N [U0126, 1,4-Diamino-2,3-dicyano-1,4-bis(o-amionophenylmercapto)butadiene]
- Absorption β-Galaktosidase Assay, Mittelwert von 3 Messungen (HeLa Zellen; 5µM inhibitor): 0,72
- Absorption β-Galaktosidase Assay, Mittelwert von 3 Messungen (HeLa Zellen; 10µM inhibitor): 0,92
- Absorption β-Galaktosidase Assay, Mittelwert von 3 Messungen (HeLa Zellen; 25µM inhibitor): 0,79
- Absorption β-Galaktosidase Assay, Mittelwert von 3 Messungen (HeLa Zellen; 50µM inhibitor): 0,90
- Absorption β-Galaktosidase Assay, Mittelwert von 3 Messungen (HeLa Zellen; 75µM inhibitor): 0,97
- Luciferase Assay, Mittelwert von 3x3 Messungen (HeLa-Luc Zellen [3]; U0126 5µM, one transfection, 0µM 1157, non-specific-control-siRNA 1829, untransfected 1674): 375 RLU/µl Zellextrakt/sec
- Luciferase Assay, Mittelwert von 3x3 Messungen (HeLa-Luc Zellen [3]; U0126 5µM, transfection repeated on day 3, 0µM 1001, non-specific-control-siRNA 2290, untransfected 2249): 641 RLU/µl Zellextrakt/sec
- Luciferase Assay, Mittelwert von 3x3 Messungen (HeLa-Luc Zellen [3]; U0126 10µM, one transfection, 0µM 1157, non-specific-control-siRNA 1829, untransfected 1674): 567 RLU/µl Zellextrakt/sec
- Luciferase Assay, Mittelwert von 3x3 Messungen (HeLa-Luc Zellen [3]; U0126 10µM, transfection repeated on day 3, 0µM 1001, non-specific-control-siRNA 2290, untransfected 2249): 162 RLU/µl Zellextrakt/sec
- Luciferase Assay, Mittelwert von 3x3 Messungen (HeLa-Luc Zellen [3]; U0126 25µM, one transfection, 0µM 1157, non-specific-control-siRNA 1829, untransfected 1674): 268 RLU/µl Zellextrakt/sec
- Luciferase Assay, Mittelwert von 3x3 Messungen (HeLa-Luc Zellen [3]; U0126 25µM, transfection repeated on day 3, 0µM 1001, non-specific-control-siRNA 2290, untransfected 2249): 179 RLU/µl Zellextrakt/sec
- Luciferase Assay, Mittelwert von 3x3 Messungen (HeLa-Luc Zellen [3]; U0126 50µM, one transfection, 0µM 1157, non-specific-control-siRNA 1829, untransfected 1674): 193 RLU/µl Zellextrakt/sec
- Luciferase Assay, Mittelwert von 3x3 Messungen (HeLa-Luc Zellen [3]; U0126 50µM, transfection repeated on day 3, 0µM 1001, non-specific-control-siRNA 2290, untransfected 2249): 171 RLU/µl Zellextrakt/sec
- Luciferase Assay, Mittelwert von 3x3 Messungen (HeLa-Luc Zellen [3]; U0126 75µM, one transfection, 0µM 1157, non-specific-control-siRNA 1829, untransfected 1674): 260 RLU/µl Zellextrakt/sec
- Luciferase Assay, Mittelwert von 3x3 Messungen (HeLa-Luc Zellen [3]; U0126 75µM, transfection repeated on day 3, 0µM 1001, non-specific-control-siRNA 2290, untransfected 2249): 103 RLU/µl Zellextrakt/sec
